Reference: PubChem BioAssay (NCI)
“And” between values parts separate entries of the source, which are not always exact repeats. Identical values can stand only once.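 96-well plates; 48 h exposure; 5 concentrations. Endpoints by linear interpolation between flanking doses. Not reached: highest tested concentration assigned. GI50 marks 50% less growth. TGI denotes the concentration required for complete inhibition of growth.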

Experiments:
Test in all cases: growth of human tumour cells (NCI), 48 h
[1] = test system: SK-MEL-2 melanoma
[2] = test system: SF-539 CNS
[3] = test system: RXF 393 renal
[4] = test system: HCT-15 colon
[5] = test system: IGROV1 ovarian
[6] = test system: 786-0 renal
[7] = test system: HOP-92 NSCLC
[8] = test system: MALME-3M melanoma
[9] = test system: HCT-116 colon
[10] = test system: U251 CNS

SMILES | GI50 [1] [µM] | TGI [1] | GI50 [2] [µM] | TGI [2] | GI50 [3] [µM] | TGI [3] | GI50 [4] [µM] | TGI [4] [µM] | GI50 [5] [µM] | TGI [5] [µM] | GI50 [6] [µM] | TGI [6] [µM] | GI50 [7] [µM] | TGI [7] [µM] | GI50 [8] [µM] | TGI [8] [µM] | GI50 [9] [µM] | TGI [9] [µM] | GI50 [10] [µM] | TGI [10] [µM]
O=c1c(O)c(-c2ccc(O)c(O)c2)oc2cc(O)cc(O)c12 | 15.1 | 47.3 µM and > 100 µM | 6.04 | 37.2 µM and > 100 µM | 11.7 | 50.9 µM and > 100 µM | 10.1 | > 100 | 11.5 | > 100 | 21.9 | > 100 | 6.16 | > 74.8 | 62 | > 100 | 16.9 | > 100 | 8.68 | > 100
Cc1ccc(-c2csc(NC(=O)N3CCN(c4cc5c(cc4F)c(=O)c(C(=O)O)cn5C4CC4)CC3)n2)cc1 | 1.37 | 4.36 µM | 0.418 | > 100 µM | 0.602 | 55 µM | 0.417 | > 100 | 0.482 | > 100 | 0.471 | 37.5 | 0.431 | 3.91 | 1.1 | 5.67 | 0.335 | > 100 | 0.392 | 14.8
Cc1cn2c(/C=C3/C(=O)Nc4ccc(O)cc43)c(C)nc2s1 | > 53 | > 100 µM | 2.42 | 9.16 µM | 2.89 | > 72.5 µM | 3.78 | > 58.5 | 7.23 | > 100 | 4.95 | > 100 | 0.373 | 8.87 | 0.946 | 19.5 | 1.22 | > 45.5 | 3.06 | 35.7
COC(=O)c1cc2ccccc2c2c3c(ccc12)OCO3 | 49.9 | 334 µM | 44.4 | 394 µM | 14.8 | 89.5 µM | 137 | > 1000 | 90.7 | > 1000 | 56.1 | 477 | 17.4 | 73 | 76.6 | 483 | 194 | > 1000 | 79.2 | 924
C#CCNCCN1C(=O)c2ccc3c4c(ccc(c24)C1=O)C(=O)N(CCNCC#C)C3=O | 6.57 | 14.1 µM | 4.76 | 11.2 µM | 1.79 | 9.69 µM | 2.95 | 10.6 | 2.07 | 10.4 | 6.1 | 26.5 | 7.39 | 22.9 | 0.903 | 3.14 | 1.75 | 11.1 | 3.3 | 10.9
Cc1ccc(C(=O)NC2CCC2)cc1-c1ccc(C(=O)NCC2CC2)cc1 | > 25 | > 25 µM | > 25 | > 25 µM | > 25 | > 25 µM | > 25 | > 25 | > 25 | > 25 | > 25 | > 25 | > 21.3 | > 25 | > 25 | > 25 | > 25 | > 25 | > 25 | > 25
O=S(=O)(/C=C/CS(=O)(=O)c1ccccc1)c1ccccc1 |  | 29.3 µM |  | 43.6 µM |  | > 100 µM |  | 45.6 |  | > 100 |  | 55.6 |  | > 100 |  | > 100 |  | 57.1 |  | 77.5
CN(C)c1ccc(C(=NO)c2ccc(N(C)C)cc2)cc1 | 3.57 | > 100 µM | 3.38 | > 100 µM | 1.46 | 5.03 µM | 1.64 | > 100 | 2.4 | > 100 | 7.49 | > 100 | 15.2 | > 100 | 2.63 | > 100 | 2.53 | > 100 | 2.68 | > 100
O=C1C(SCCO)=C(SCCO)C(=O)N1c1ccc(-c2ccccc2)cc1 | 0.259 | 1.69 µM | 1.78 | 3.92 µM | 1.19 | 2.73 µM | 2.13 | 5.31 | 2.02 | 4.67 | 1.33 | 2.84 | 1.87 | 7.24 | 1.61 | 5.31 | 0.536 | 1.24 | 5.21 | 15.7
Cc1ccc(-c2nc3nc(-c4ccccc4)nc(N4CCNCC4)c3o2)cc1 | 1.86 | 3.64 µM | 0.703 | 1.85 µM | 1.43 | 2.97 µM | 0.291 | 0.834 | 0.577 | 1.41 | 0.585 | 1.27 | 1.48 | 3.13 | 1.81 | 3.59 | 0.185 | 0.337 | 0.181 | 0.338
COC1=C(C)C(=O)c2c(cc3c(c2O)C(C)(CCC=C(C)C)C(C)O3)C1=O (stereo not given) |  | > 60.8 µM |  | > 100 µM |  | > 100 µM |  | > 57.2 |  | > 100 |  | > 100 |  | > 100 |  | > 100 |  | > 100 |  | > 100
COc1ccc2nc3cc(Cl)ccc3c(SCC(=O)Nc3ccccc3-c3ccccc3NC(=O)CSc3c4ccc(Cl)cc4nc4ccc(OC)cc34)c2c1 |  | > 100 µM |  | > 100 µM |  | > 100 µM |  | > 100 |  | > 100 |  | > 100 |  | > 100 |  | > 100 |  | > 100 |  | > 100
C[CH2][Sn]([CH2]C)([O]C(=O)c1ccccc1F)[O][Sn]([CH2]C)([CH2]C)[O]C(=O)c1ccccc1F | 19.1 | 38.6 µM | 20.5 | 46.9 µM | 14.1 | 27.9 µM | 34.3 | > 62.8 | > 87.8 | > 100 | 25.2 | > 56.6 | 19 | 34.7 | 14.9 | 30.4 | 38 | > 70.9 | 17.1 | 31.6
